Assay results as given in ChEMBL document CHEMBL4602617, “Discovery and optimization of heteroaryl piperazines as potent and selective PI3Kδ inhibitors” (Bioorg Med Chem Lett, 2020).

What was measured:
[1] = Clearance in dog plasma at 0.5 mg/kg, iv or 1 mg/kg, po; assay type: ADME, organism-based, Canis lupus familiaris
[2] = target: Cytochrome P450 2D6 (Homo sapiens, UniProt P10635); assay: Inhibition of CYP2D6 (unknown origin)
[3] = target: Aurora kinase C (Homo sapiens, UniProt Q9UQB9); assay: Inhibition of recombinant full length GST-tagged human AURKC expressed in baculovirus expression system using Ser/Thr-19 peptide as substrate incubated for 60 mins in presence of ATP by Z'-LYTE assay
[4] = target: Misshapen-like kinase 1 (Homo sapiens, UniProt Q8N4C8); assay: Inhibition of recombinant human MINK1 catalytic domain expressed in baculovirus expression system using Ser/Thr 07 peptide as substrate after 1 hr in presence of ATP by Z'LYTE assay
[5] = target: Sodium-dependent serotonin transporter (Homo sapiens) (UniProt P31645); assay: Displacement of [3H]paroxetine from full length recombinant human […] expressed in HEK293 cells at 10 uM after 60 mins by radiometric scintillation analysis relative to control; assay type: cell-based
[6] = target: Nociceptin receptor (Homo sapiens) (UniProt P41146); assay: Displacement of [3H]nociceptin from full length human recombinant ORL1 receptor expressed in HEK293 cells at 10 uM measured after 60 mins by radiometric scintillation analysis relative to control; assay type: cell-based
[7] = target: Endothelin-1 receptor (Homo sapiens) (UniProt P25101); assay: Displacement of [125I]endothelin-1 from recombinant full length human recombinant ETA receptor expressed in CHO-S cells at 10 uM measured after 120 mins by radiometric scintillation analysis relative to control; assay type: cell-based
[8] = target: B1 bradykinin receptor (Homo sapiens) (UniProt P46663); assay: Inhibition of human B1 bradykinin receptor at 10 uM relative to control
[9] = target: Beta-2 adrenergic receptor (Homo sapiens) (UniProt P07550); assay: Displacement of [3H]CGP-12177 from full-length recombinant human beta2 adrenergic receptor expressed in CHO cells co-expressing NBR1 at 10 uM measured after 60 mins by scintillation counting method relative to control; assay type: cell-based
[10] = target: Tyrosine-protein kinase CSK (Homo sapiens, UniProt P41240); assay: Inhibition of recombinant full length human His-tagged CSK expressed in Escherichia coli expression system using tyrosine-2 peptide as substrate incubated for 60 mins in presence of ATP by Z'-LYTE assay
[11] = target: Casein kinase I isoform gamma-3 (Homo sapiens, UniProt Q9Y6M4); assay: Inhibition of recombinant human full-length GST-tagged CSNK1G3 expressed in baculovirus expression system using FRET-labeled Ser/Thr 05 peptide as substrate measured after 1 hr in presence of ATP by Z'-lyte assay
[12] = target: Ephrin type-B receptor 2 (Homo sapiens, UniProt P29323); assay: Inhibition of recombinant human GST-tagged EPHB2 catalytic domain (616 to 884 residues) expressed in baculovirus expression system using tyrosine-2 peptide as substrate incubated for 60 mins in presence of ATP by Z'-LYTE assay
[13] = target: Ephrin type-B receptor 3 (Homo sapiens, UniProt P54753); assay: Inhibition of recombinant human GST-tagged EPHB3 catalytic domain expressed in baculovirus expression system using tyrosine-2 peptide as substrate incubated for 60 mins in presence of ATP by Z'-LYTE assay
[14] = target: Tyrosine-protein kinase Fyn (Homo sapiens, UniProt P06241); assay: Inhibition of recombinant full length C-terminal His-tagged human FYN cytoplasmic domain expressed in baculovirus expression system using fluorophore-labeled tyrosine-2 peptide as substrate after 1 hr in presence of ATP by Z'-Lyte assay
[15] = target: MAP kinase-activated protein kinase 5 (Homo sapiens, UniProt Q8IW41); assay: Inhibition of recombinant full length human His-tagged PRAK expressed in baculovirus expression system using serine/threonine-4 peptide as substrate incubated for 60 mins in presence of ATP by Z'-LYTE assay
[16] = target: Serine/threonine-protein kinase Nek9 (Homo sapiens, UniProt Q8TD19); assay: Inhibition of recombinant human GST-tagged NEK9 catalytic domain (347 to 732 residues) expressed in baculovirus expression system using serine/threonine-7 peptide as substrate incubated for 60 mins in presence of ATP by Z'-LYTE assay
[17] = target: Phosphatidylinositol 4-kinase beta (Homo sapiens, UniProt Q9UBF8); assay: Inhibition of recombinant full length human GST-tagged PI4KB expressed in baculovirus expression system using PI lipid as substrate incubated for 60 mins in presence of ATP by Adapta assay
[18] = target: Serine/threonine-protein kinase pim-1 (Homo sapiens, UniProt P11309); assay: Inhibition of recombinant full length human His-tagged PIM1 expressed in baculovirus expression system using serine/threonine-7 peptide as substrate incubated for 60 mins in presence of ATP by Z'-LYTE assay
[19] = target: Serine/threonine-protein kinase pim-2 (Homo sapiens, UniProt Q9P1W9); assay: Inhibition of recombinant full length GST-tagged human PIM2 expressed in baculovirus expression system using Ser/Thr 07 as substrate after 1 hr in presence of ATP by Z'-LYTE assay
[20] = target: Protein kinase C alpha type (Homo sapiens, UniProt P17252); assay: Inhibition of recombinant human GST-tagged PKCalpha expressed in insect expression system using serine/threonine-7 peptide as substrate incubated for 60 mins in presence of ATP by Z'-LYTE assay
[21] = target: Proto-oncogene tyrosine-protein kinase ROS (Homo sapiens, UniProt P08922); assay: Inhibition of recombinant human GST-tagged ROS1 cytoplasmic domain expressed in baculovirus expression system using tyrosine-2 peptide as substrate incubated for 60 mins in presence of ATP by Z'-LYTE assay
[22] = target: Ribosomal protein S6 kinase alpha-1 (Homo sapiens, UniProt Q15418); assay: Inhibition of recombinant full length human His-tagged RPS6KA1 expressed in baculovirus expression system using […] peptide as substrate incubated for 60 mins in presence of ATP by Z'-LYTE assay
[23] = target: Ribosomal protein S6 kinase alpha-4 (Homo sapiens, UniProt O75676); assay: Inhibition of recombinant full length human GST-tagged RPS6KA4 expressed in baculovirus expression system using ser/Thr01 peptide as substrate incubated for 60 mins in presence of ATP by Z'-LYTE assay
[24] = target: Proto-oncogene tyrosine-protein kinase Src (Homo sapiens, UniProt P12931); assay: Inhibition of recombinant full length human His-tagged SRC expressed in baculovirus expression system using tyrosine-2 peptide as substrate incubated for 60 mins in presence of ATP by Z'-LYTE assay
[25] = target: SRSF protein kinase 1 (Homo sapiens, UniProt Q96SB4); assay: Inhibition of recombinant full length human His-tagged SRPK1 expressed in baculovirus expression system using serine/threonine-18 peptide as substrate incubated for 60 mins in presence of ATP by Z'-LYTE assay
[26] = target: Serine/threonine-protein kinase 25 (Homo sapiens, UniProt O00506); assay: Inhibition of recombinant full length human GST-tagged YSK1 expressed in baculovirus expression system using serine/threonine-7 peptide as substrate incubated for 60 mins in presence of ATP by Z'-LYTE assay

Sequence of Beta-2 adrenergic receptor (Homo sapiens) (P07550 whole entry, looked up): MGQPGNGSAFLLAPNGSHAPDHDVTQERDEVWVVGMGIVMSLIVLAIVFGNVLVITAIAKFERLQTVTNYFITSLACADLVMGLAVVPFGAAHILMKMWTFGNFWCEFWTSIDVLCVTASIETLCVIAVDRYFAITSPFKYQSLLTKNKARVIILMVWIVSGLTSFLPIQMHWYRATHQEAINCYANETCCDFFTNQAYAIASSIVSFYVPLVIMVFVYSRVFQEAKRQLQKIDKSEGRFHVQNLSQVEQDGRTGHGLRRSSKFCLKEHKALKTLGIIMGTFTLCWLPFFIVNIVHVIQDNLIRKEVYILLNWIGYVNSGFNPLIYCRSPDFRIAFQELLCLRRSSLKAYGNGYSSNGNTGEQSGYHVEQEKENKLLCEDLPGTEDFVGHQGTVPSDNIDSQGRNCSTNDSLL
Sequence of Ribosomal protein S6 kinase alpha-4 (O75676 whole entry): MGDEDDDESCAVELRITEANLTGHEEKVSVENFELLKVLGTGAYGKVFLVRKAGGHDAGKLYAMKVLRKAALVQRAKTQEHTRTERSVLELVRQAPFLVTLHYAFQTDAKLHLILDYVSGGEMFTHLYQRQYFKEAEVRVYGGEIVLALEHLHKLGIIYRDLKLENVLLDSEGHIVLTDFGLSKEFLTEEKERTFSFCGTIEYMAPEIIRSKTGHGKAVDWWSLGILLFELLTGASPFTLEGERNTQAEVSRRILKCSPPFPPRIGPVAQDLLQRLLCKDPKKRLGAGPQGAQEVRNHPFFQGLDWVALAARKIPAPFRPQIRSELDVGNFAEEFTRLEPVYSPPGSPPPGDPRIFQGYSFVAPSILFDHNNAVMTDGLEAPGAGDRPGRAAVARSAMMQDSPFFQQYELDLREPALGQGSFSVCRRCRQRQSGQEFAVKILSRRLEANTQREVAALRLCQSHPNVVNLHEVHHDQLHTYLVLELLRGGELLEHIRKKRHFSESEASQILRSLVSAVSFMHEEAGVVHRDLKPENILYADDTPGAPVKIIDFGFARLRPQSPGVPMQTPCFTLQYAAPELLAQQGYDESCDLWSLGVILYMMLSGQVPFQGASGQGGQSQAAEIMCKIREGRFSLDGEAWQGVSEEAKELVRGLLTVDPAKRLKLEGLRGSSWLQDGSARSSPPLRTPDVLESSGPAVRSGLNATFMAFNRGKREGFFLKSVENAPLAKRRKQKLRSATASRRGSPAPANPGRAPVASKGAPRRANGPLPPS
Sequence of Nociceptin receptor (Homo sapiens) (P41146 whole entry): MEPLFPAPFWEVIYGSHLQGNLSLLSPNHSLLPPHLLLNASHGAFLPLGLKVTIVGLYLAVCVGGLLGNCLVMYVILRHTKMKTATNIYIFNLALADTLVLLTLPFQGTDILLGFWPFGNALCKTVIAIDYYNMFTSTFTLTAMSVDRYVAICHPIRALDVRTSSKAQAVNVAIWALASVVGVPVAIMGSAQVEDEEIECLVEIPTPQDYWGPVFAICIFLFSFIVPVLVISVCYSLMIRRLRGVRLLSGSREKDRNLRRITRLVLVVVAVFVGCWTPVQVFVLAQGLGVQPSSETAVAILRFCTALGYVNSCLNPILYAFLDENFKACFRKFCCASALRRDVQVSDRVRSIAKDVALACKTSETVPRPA
Sequence of Aurora kinase C (Q9UQB9 whole entry, the tested form may be a part): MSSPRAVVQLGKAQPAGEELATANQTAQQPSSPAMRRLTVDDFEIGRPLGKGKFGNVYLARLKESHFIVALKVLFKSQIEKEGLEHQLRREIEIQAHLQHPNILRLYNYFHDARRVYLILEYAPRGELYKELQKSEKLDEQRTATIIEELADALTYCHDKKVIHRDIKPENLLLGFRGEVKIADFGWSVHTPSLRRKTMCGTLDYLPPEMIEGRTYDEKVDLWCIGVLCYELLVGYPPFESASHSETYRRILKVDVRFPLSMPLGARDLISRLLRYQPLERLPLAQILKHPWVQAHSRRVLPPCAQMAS
Sequence of Phosphatidylinositol 4-kinase beta (Q9UBF8 whole entry): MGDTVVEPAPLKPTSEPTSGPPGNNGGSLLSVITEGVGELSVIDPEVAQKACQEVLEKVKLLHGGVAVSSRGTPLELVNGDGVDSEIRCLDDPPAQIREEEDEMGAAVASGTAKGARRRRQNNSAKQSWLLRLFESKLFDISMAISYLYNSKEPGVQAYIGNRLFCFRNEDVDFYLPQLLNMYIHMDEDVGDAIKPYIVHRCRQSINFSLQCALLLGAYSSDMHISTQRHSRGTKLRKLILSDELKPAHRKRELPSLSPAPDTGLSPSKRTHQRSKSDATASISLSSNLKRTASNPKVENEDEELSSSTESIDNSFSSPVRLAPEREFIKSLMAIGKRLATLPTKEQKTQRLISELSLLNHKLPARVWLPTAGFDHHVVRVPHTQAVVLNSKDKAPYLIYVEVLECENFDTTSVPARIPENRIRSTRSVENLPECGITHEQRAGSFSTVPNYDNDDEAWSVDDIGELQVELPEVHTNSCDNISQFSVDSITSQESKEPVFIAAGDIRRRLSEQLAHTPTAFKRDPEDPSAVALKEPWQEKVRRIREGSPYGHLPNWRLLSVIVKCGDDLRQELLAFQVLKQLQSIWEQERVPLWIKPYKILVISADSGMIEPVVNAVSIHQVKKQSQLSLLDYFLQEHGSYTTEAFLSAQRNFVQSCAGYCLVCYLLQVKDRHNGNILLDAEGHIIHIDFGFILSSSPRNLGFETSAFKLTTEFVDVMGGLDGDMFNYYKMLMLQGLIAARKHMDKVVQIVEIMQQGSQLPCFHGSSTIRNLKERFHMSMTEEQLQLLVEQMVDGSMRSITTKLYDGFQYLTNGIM
Sequence of SRSF protein kinase 1 (Q96SB4 whole entry): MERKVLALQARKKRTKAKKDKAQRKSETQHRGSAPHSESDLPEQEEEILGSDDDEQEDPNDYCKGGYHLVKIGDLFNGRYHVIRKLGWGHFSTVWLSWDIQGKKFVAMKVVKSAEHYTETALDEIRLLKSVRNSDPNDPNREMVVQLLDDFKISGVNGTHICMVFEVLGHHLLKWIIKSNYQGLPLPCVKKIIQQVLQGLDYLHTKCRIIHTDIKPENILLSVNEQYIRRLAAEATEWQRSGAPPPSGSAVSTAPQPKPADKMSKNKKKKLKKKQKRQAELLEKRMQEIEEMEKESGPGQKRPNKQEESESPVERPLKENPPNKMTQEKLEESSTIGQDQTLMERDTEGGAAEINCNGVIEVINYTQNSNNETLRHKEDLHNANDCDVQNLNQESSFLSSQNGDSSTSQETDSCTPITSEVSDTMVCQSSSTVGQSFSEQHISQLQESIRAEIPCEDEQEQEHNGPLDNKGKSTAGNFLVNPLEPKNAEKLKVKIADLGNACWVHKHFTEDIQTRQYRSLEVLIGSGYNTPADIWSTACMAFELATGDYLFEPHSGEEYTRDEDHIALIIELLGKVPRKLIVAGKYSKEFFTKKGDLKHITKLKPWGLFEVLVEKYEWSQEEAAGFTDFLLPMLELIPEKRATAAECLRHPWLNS
Sequence of Cytochrome P450 2D6 (P10635 whole entry): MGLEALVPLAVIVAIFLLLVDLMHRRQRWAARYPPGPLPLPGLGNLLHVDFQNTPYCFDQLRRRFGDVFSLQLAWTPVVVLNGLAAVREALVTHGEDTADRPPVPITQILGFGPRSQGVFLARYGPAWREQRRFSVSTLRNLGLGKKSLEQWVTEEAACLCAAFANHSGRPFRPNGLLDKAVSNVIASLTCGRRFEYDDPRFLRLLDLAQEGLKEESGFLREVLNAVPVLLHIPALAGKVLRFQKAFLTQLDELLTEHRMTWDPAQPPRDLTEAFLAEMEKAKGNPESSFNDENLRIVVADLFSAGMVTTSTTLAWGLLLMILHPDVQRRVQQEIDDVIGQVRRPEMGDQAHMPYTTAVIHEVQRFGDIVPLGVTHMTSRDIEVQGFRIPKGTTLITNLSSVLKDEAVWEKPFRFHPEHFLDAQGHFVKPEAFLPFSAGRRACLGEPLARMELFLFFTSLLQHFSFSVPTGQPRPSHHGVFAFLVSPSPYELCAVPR
Sequence of Ribosomal protein S6 kinase alpha-1 (Q15418 whole entry): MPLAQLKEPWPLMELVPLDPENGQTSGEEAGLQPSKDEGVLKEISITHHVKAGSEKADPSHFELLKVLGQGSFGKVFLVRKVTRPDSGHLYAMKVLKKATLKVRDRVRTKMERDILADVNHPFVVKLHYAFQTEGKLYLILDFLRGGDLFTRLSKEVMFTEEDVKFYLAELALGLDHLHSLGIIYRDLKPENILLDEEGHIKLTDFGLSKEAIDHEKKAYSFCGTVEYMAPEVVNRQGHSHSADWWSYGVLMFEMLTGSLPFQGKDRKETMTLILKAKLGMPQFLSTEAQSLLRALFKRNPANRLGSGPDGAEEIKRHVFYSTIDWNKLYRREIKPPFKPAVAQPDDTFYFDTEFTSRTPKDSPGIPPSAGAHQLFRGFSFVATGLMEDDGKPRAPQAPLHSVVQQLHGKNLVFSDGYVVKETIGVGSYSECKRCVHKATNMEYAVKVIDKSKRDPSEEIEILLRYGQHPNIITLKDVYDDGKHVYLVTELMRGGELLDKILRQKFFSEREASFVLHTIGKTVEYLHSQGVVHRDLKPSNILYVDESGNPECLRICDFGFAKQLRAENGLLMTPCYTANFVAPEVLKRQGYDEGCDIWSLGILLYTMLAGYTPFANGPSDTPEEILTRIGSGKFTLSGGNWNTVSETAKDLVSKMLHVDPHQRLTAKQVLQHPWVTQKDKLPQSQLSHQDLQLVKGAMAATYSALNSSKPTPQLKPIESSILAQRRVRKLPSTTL
Sequence of Tyrosine-protein kinase CSK (P41240 whole entry, canonical isoform): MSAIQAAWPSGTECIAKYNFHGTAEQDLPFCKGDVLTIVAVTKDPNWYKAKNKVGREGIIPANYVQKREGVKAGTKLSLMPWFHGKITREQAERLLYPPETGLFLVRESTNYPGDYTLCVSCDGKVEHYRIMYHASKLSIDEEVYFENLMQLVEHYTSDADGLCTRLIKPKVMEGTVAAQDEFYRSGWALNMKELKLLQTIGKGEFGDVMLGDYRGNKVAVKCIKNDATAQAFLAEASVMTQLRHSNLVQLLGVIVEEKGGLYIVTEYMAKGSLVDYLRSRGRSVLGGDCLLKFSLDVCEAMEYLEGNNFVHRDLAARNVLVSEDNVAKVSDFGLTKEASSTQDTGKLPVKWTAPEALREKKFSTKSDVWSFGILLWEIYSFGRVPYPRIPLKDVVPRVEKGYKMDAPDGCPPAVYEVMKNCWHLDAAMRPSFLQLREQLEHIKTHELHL

C[C@@H]1C[C@H]1C(=O)N1CCN(c2cnc(C#N)c(-c3cnn(C)c3)n2)C[C@H]1C
clearance [1]: 8 mL/min/kg | IC50 [2]: > 50 µM | IC50 [3]: > 100 µM | IC50 [4]: 25.6 µM | inhibition [5]: 0% | inhibition [6]: -1% | inhibition [7]: -9% | inhibition [8]: -1% | inhibition [9]: 7% | IC50 [10]: > 100 µM | IC50 [11]: > 100 µM | IC50 [12]: > 100 µM | IC50 [13]: > 100 µM | IC50 [14]: > 100 µM | IC50 [15]: > 100 µM | IC50 [16]: > 100 µM | IC50 [17]: > 100 µM | IC50 [18]: > 100 µM | IC50 [19]: > 100 µM | IC50 [20]: > 100 µM | IC50 [21]: > 100 µM | IC50 [22]: > 100 µM | IC50 [23]: > 100 µM | IC50 [24]: > 100 µM | IC50 [25]: > 100 µM | IC50 [26]: > 100 µM
